Experimental data from patent EP2489663A1, “Compounds as syk kinase inhibitors” (Almirall, S.A., priority 2011, dated 2012).

Tests used:
human full-length Syk = molecular target: T1, human full-length Syk (Homo sapiens, UniProt P43405); assay: Syk Enzyme assay - Radioactive filtration kinase assay; type: biochemical; conditions: recombinant human full-length Syk 1 nM, poly-GT substrate, [γ-33P] ATP, 40 min room temperature
T1 construct: Recombinant human full-length Syk was supplied by Millipore; purchased Millipore
Description: Syk Enzyme assay- Radioactive filtration kinase assay
Recombinant human full-length Syk was supplied by Millipore. The activity of Syk kinase was assessed using a radioactive filtration kinase assay.
10 µL of substrate poly-GT (100 µg/mL final) and 4 µl of Syk (1 nM final) in 50 mM Tris-HCl (pH 7.5), 0.1 mM EGTA, 4 mM Mg(CH3COO)2, 0.1 mM Na3VO4, 0.1% (v/v) β-mercaptoethanol, 0.133 mg/mL BSA (bovine serum albumin) were added to 1.5 µl of various concentrations of compound or DMSO vehicle (5% final). The reaction was initiated by the addition of 14.5 µL of 0.36 µCi [γ-^33P] ATP (adenosine tri-phosphate) (10 mCi/ml, PerkinElmer). This was prepared in a half-area NBS plate (Corning) and allowed to stand at room temperature for 40 min.
15 µL of reaction mixture was transferred to a filter plate (Millipore) previously prewetted with a solution of 75 mM phosphoric acid. The reaction was terminated with the addition of 200 µL phosphoric acid. The filter plate was washed three times under vacuum on a vacuum manifold (Millipore cat# MSVMHTS00) at 8" Hg vacuum level with 200 µL phosphoric acid per wash.
30 µL Optiphase™ Supermix (PerkinElmer) was added to each test well and allowed to incubate for at least 1 h before counting. Radioactivity counting was performed in a Wallac MicroBeta®, and the tyrosine phosphorylation activity by Syk was calculated.

LAD2 cells = LAD2 cells assay (mast cell degranulation, β-hexosaminidase release); type: cell-based; conditions: Homo sapiens, 0.5 h; biotin-labeled IgE sensitized LAD2 cells, compound 30 min, activated with 125 ng/mL streptavidin 30 min, released β-hexosaminidase
Text: LAD2 is a human mast cell line depending on stem cell factor for its survival, maturation and differentiation. This mast cell line was established by the NIH from bone marrow aspirates from a patient with mast cell sarcoma. LAD2 cells resemble CD34+ - derived human mast cells as they have granules containing tryptase, histamine and β-hexosaminidase. They also express c-kit and FcεRI (Kirshenbaum, et al., Leukemia Research 27: 677-682, 2003).
Sensitization of LAD2 cells
Cells were sensitized (0.2x10^6 cells/mL) in its normal growth factor (Complete StemPro-34 SFM, Gibco 10639-011 containing StemPro-34 nutrient supplement (1/40); glutamine (2 mM) and supplemented with 100 ng/ml SCF) by adding 100 ng/mL of biotin-labeled IgE (USBiological) overnight (16-18 h, 37º, 5% CO2) in a humidified atmosphere (90%).
Compounds were prepared from a 10^-2M stock in 100% DMSO to give seven successive 1/3 dilutions in DMSO. From each concentration, 2 further 1/10 dilutions were prepared in release buffer (137 mM NaCl, 2.70 mM KCI, 0.4 mM NaH2PO4, 5.6 mM (D)-glucose, 1.8 mM CaCl2, 1.3 mM MgSO4, 0.025% BSA). Finally, 5 µl from each diluted concentration were transferred into the assay plate (flat 96-well Nunc). The final compound concentrations tested ranged from 1x10^-5M to 4.12x10^-9M with a final proportion of DMSO in the assay of 0.1%. Control wells were treated with 0.1 % DMSO.
Sensitized LAD2 cells were centrifuged (300 g, 3 min, R.T.) and washed 2 times with release buffer. Cells were resuspended in release buffer and adjusted to a density of 0.2x10^6/mL. 45 µL of the adjusted cells were transfered to the assay plate (∼10,000cells/well) containg 5 µL of the final compound concentrations. LAD2 cells were incubated with the compound for 30 min (37 °C, 5% CO2 90% of humidity) and then activated with 125 ng/mL of streptavidin (Pierce 21125) for 30 min (37°C, 5% CO2, 90% of humidity). After the activation, cells were centrifuged at 1200 g, 10 min, 12 °C and supernatats were removed and transfered to another well for determination of released β-hexosaminidase. Empty wells were filled with 50 µL of release buffer for determination of intracellular β-hexosaminidase. Cells were lysed with 2 cycles of freeze-thaw.
Cells were incubated for 90 minutes, 37 °C with 1 mM β-hexosaminidase substrate (p-nitrophenyl N-acetyl-D-glucosamide, in citric buffer, pH 4.5). Reaction was stopped with 0.4 M glycine solution (pH 10.0) and the plate is read immediately at 405 nm.

SMILES | IC50 (human full-length Syk) [nM] | IC50 (LAD2 cells) [nM]
Cc1ccnc(Nc2nn(-c3ccnc(N4C[C@@H]5C[C@H]4CN5)c3)c3cc(O)ccc23)c1 [Example 88, 1-{2-[(1S,4S)-2,5-diazabicyclo[2.2.1]hept-2-yl]pyridin-4-yl}-3-[(4-methylpyridin-2-yl)amino]-1H-indazol-6-ol] | 5 | 364
Cc1ccc2c(Nc3cnccn3)nn(-c3ccnc(N4C[C@@H]5C[C@H]4CN5)c3)c2c1 [Example 55, 1-{2-[(1S,4S)-2,5-Diazabicyclo[2.2.1]hept-2-yl]pyridin-4-yl}-6-methyl-N-pyrazin-2-yl-1H-indazol-3-amine] | 6 | 142
c1ccc2c(c1)c(Nc1cnccn1)nn2-c1ccnc(N2C[C@@H]3C[C@H]2CN3)c1 [Example 10, 1-{2-[(1S,4S)-2,5-Diazabicyclo[2.2.1]hept-2-yl]pyridin-4-yl}-N-pyrazin-2-yl-1H-indazol-3-amine] | 7.4 | 55
C[C@H]1CNCCN1c1cc(-n2nc(Nc3cnccn3)c3ccccc32)ccn1 [Example 50, 1-{2-[(2S)-2-methylpiperazin-1-yl]pyridin-4-yl}-N-pyrazin-2-yl-1H-indazol-3-amine] | 11 | 80
c1cnc(Nc2nn(-c3ccnc(N4C[C@@H]5C[C@H]4CN5)c3)c3cc(C4CC4)ccc23)cn1 [Example 58, 6-cyclopropyl-1-{2-[(1S,4S)-2,5-diazabicyclo[2.2.1]hept-2-yl]pyridin-4-yl}-N-pyrazin-2-yl-1H-indazol-3-amine] | 4 | 266
c1ccc2c(c1)c(Nc1cnccn1)nn2-c1cc(N2C[C@@H]3C[C@H]2CN3)ccn1 [Example 69, 1-{4-[(1S,4S)-2,5-Diazabicyclo[2.2.1]hept-2-yl]pyridin-2-yl}-N-pyrazin-2-yl-1H-indazol-3-amine] | 13 | 263
c1ccc2c(c1)c(Nc1cnccn1)nn2-c1ccnc(N2CCCNCC2)c1 [Example 8, 1-[2-(1,4-Diazepan-1-yl)pyridin-4-yl]-N-pyrazin-2-yl-1H-indazol-3-amine] | 17 | 
Cc1nc(N2C[C@@H]3C[C@H]2CN3)cc(-n2nc(Nc3cnccn3)c3ccccc32)n1 [Example 42, 1-{6-[(1S,4S)-2,5-Diazabicyclo[2.2.1]hept-2-yl]-2-methylpyrimidin-4-yl}-N-pyrazin-2-yl-1H-indazol-3-amine] | 9 | 254
COc1ccc2c(Nc3cnccn3)nn(-c3ccnc(N4CCNC[C@@H]4C)c3)c2c1 [Example 76, 6-Methoxy-1-{2-[(2S)-2-methylpiperazin-1-yl]pyridin-4-yl}-N-pyrazin-2-yl-1H-indazol-3-amine] | 11 | 137
COc1ccc2c(Nc3cnccn3)nn(-c3cc(N4C[C@@H]5C[C@H]4CN5)ncn3)c2c1 [Example 56, 1-{6-[(1S,4S)-2,5-diazabicyclo[2.2.1]hept-2-yl]pyrimidin-4-yl}-6-methoxy-N-pyrazin-2-yl-1H-indazol-3-amine] | 15 | 179
COCCOc1ccc2c(Nc3cnccn3)nn(-c3ccnc(N4C[C@@H]5C[C@H]4CN5)c3)c2c1 [Example 61, 1-{2-[(1S,4S)-2,5-diazabicyclo[2.2.1]hept-2-yl]pyridin-4-yl}-6-(2-methoxyethoxy)-N-pyrazin-2-yl-1H-indazol-3-amine] | 12 | 136
Oc1ccc2c(Nc3cnccn3)nn(-c3cncc(N4C[C@@H]5C[C@H]4CN5)c3)c2c1 [Example 63, 1-{5-[(1S,4S)-2,5-Diazabicyclo[2.2.1]hept-2-yl]pyridin-3-yl}-3-(pyrazin-2-ylamino)-1H-indazol-6-ol] | 11 | 363
COc1ccc2c(Nc3cnccn3)nn(-c3cccc(N4C[C@@H]5C[C@H]4CN5)c3)c2c1 [Example 89, 1-{3-[(1S,4S)-2,5-diazabicyclo[2.2.1]hept-2-yl]phenyl}-6-methoxy-N-pyrazin-2-yl-1H-indazol-3-amine] | 16 | 160
Nc1ccc2c(Nc3cnccn3)nn(-c3ccnc(N4C[C@@H]5C[C@H]4CN5)c3)c2c1 [Example 12, 1-{2-[(1S,4S)-2,5-Diazabicyclo[2.2.1]hept-2-yl]pyridin-4-yl}-N^3-pyrazin-2-yl-1H-indazole-3,6-diamine] | 2.5 | 167
COc1ccc2c(Nc3cnccn3)nn(-c3ccnc(N4CCCNCC4)c3)c2c1 [Example 62, 1-[2-(1,4-diazepan-1-yl)pyridin-4-yl]-6-methoxy-N-pyrazin-2-yl-1H-indazol-3-amine] | 17 | 169
Oc1ccc2c(Nc3cnccn3)nn(-c3ccnc(N4CCCNCC4)c3)c2c1 [Example 86, 1-[2-(1,4-diazepan-1-yl)pyridin-4-yl]-3-(pyrazin-2-ylamino)-1H-indazol-6-ol] | 15 | 263
O=C(c1ccc2c(Nc3cnccn3)nn(-c3ccnc(N4C[C@@H]5C[C@H]4CN5)c3)c2c1)N1CCCCC1 [Example 21, 1-{2-[(1S,4S)-2,5-Diazabicyclo[2.2.1]hept-2-yl]pyridin-4-yl}-6-(piperidin-1-ylcarbonyl)-N-pyrazin-2-yl-1H-indazol-3-amine] | 10.5 | 342
O=S(=O)(Nc1ccc2c(Nc3cnccn3)nn(-c3ccnc(N4C[C@@H]5C[C@H]4CN5)c3)c2c1)c1ccccc1 [Example 30, N-[1-{2-[(1S,4S)-2,5-Diazabicyclo[2.2.1]hept-2-yl]pyridin-4-yl}-3-(pyrazin-2-ylamino)-1H-indazol-6-yl]benzenesulfonamide] | 20 | 
COc1ccc2c(Nc3cnccn3)nn(-c3ccnc(N4C[C@@H]5C[C@H]4CN5)c3)c2c1 [Example 31, 1-{2-[(1S,4S)-2,5-Diazabicyclo[2.2.1]hept-2-yl]pyridin-4-yl}-6-methoxy-N-pyrazin-2-yl-1H-indazol-3-amine] | 8 | 111
Cc1ccc2c(Nc3cnccn3)nn(-c3cncc(N4C[C@@H]5C[C@H]4CN5)c3)c2c1 [Example 71, 1-{5-[(1S,4S)-2,5-diazabicyclo[2.2.1]hept-2-yl]pyridin-3-yl}-6-methyl-N-pyrazin-2-yl-1H-indazol-3-amine] | 5 | 111
